In general, ΔTm refers to the change in melting temperature against a reference sample.

Structures can show the parent of a compound that is named as a salt. Where two headings read alike, the source gives them in different places.

We go through 38 molecules from PMC7619385 (ACS infectious diseases, 2025).

The target in the assay is T1, LmxCLK1 (Leishmania mexicana, UniProt E9AMP2).
T1 sequence (E9AMP2 1-422): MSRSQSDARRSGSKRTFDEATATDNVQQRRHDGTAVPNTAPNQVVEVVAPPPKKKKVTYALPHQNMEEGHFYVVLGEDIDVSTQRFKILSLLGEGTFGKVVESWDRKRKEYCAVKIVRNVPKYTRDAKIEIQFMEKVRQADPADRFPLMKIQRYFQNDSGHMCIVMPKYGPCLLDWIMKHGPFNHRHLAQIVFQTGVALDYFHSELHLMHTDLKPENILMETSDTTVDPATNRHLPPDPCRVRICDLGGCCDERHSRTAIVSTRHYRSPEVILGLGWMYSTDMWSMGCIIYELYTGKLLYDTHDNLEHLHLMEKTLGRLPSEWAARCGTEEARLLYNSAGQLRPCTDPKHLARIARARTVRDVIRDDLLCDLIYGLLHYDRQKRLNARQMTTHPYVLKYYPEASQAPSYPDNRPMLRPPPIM
Kind of assay: biochemical. Type of assay: binding.

Where [1] appears, read: DSF, 10 µM compound, 2 µM LmxCLK1, Run 1.
The mark [2] stands for this setting: DSF, 10 µM compound, 2 µM LmxCLK1, Run 2.
[3] abbreviates: DSF, 10 µM compound, 2 µM LmxCLK1, mean of two runs.
The mark [4] stands for this setting: DSF, 10 µM compound, 2 µM LmxCLK1, Run 1, read-out: ΔTm Run 1.
[5] abbreviates: DSF, 10 µM compound, 2 µM LmxCLK1, Run 2, read-out: ΔTm Run 2.
Where [6] appears, read: DSF, 10 µM compound, 2 µM LmxCLK1, mean of two runs, read-out: ΔTm Average.

In the case of `COc1cc2/c(=N/c3ccc(Br)cc3F)nc[nH]c2cc1OCC1CCN(C)CC1` [Vandetanib (ZD6474)], the “ΔTm Run 1” value under setting [1] was found to be 0.0 °C. For the same molecule, the “ΔTm Run 2” value under setting [2] was -0.1 °C. Also, under setting [3], the “ΔTm Average” value is -0.1 °C.
With `Cc1ccccc1-n1c(Cn2ncc3c(N)ncnc32)nc2cccc(C)c2c1=O` [PIK-293], under setting [1], the “ΔTm Run 1” value was found to be 0.1 °C. In addition, the “ΔTm Run 2” value under setting [2] was -0.2 °C. For the same molecule, the “ΔTm Average” value under setting [3] is -0.1 °C.
Consider `Clc1ccc(C2(c3ccc(-c4cn[nH]c4)cc3)CCNCC2)cc1` [AT7867], for which the “ΔTm Run 1” value under setting [1] was 1.2 °C. For the same molecule, the “ΔTm Run 2” value under setting [2] worked out at 0.7 °C. The “ΔTm Average” value under setting [3] was 0.9 °C.
The matching figures for `CNC(=O)c1nn(C)c2c1C(C)(C)Cc1cnc(Nc3ccc(N4CCN(C)CC4)cc3)nc1-2` [Milciclib (PHA-848125)]: 0.1 °C, -0.2 °C and 0.0 °C.
Regarding `CCNC(=O)Nc1ccc(-c2nc3c(c(N4CCOC[C@@H]4C)n2)CCN(C2COC2)C3)cc1` [GDC-0349], the shift in melting temperature (ΔTm) at 10 µM is, setting by setting: under setting [4], -0.1 °C; under setting [5], -0.1 °C; under setting [6], -0.1 °C.
`COCCNCc1ccc(-c2cc3nccc(Oc4ccc(NC(=S)NC(=O)Cc5ccc(F)cc5)cc4F)c3s2)nc1` [MGCD-265]: the thermal shift (ΔTm) at 10 µM was 0 °C under setting [4], -0.1 °C under setting [5] and -0.1 °C under setting [6].
As to `Oc1ccc(Nc2nc(-c3ccc(Cl)cc3)cs2)cc1` [SKI II], the “ΔTm Run 1” value under setting [1] turned out to be 0.1 °C. For the same molecule, under setting [2], the “ΔTm Run 2” value is 0.1 °C. Further, the “ΔTm Average” value under setting [3] was found to be 0.1 °C.
Turning to `Cc1cnc(Nc2ccc(N3CCN(C)CC3)cc2)nc1Nc1cccc(S(=O)(=O)NC(C)(C)C)c1` [TG101209], under setting [1], the “ΔTm Run 1” value was found to be 0.2 °C. The “ΔTm Run 2” value under setting [2] was -0.3 °C. Also, the “ΔTm Average” value under setting [3] was determined as 0.0 °C.
As for `Nc1ccc(-c2ccc3ncc4ccc(=O)n(-c5cccc(C(F)(F)F)c5)c4c3c2)cn1` [Torin 2], under setting [1], the “ΔTm Run 1” value is -0.1 °C. Besides, the “ΔTm Run 2” value under setting [2] worked out at 0.0 °C. In addition, the “ΔTm Average” value under setting [3] was found to be 0.0 °C.
Turning to `COc1cc2nccc(Oc3ccc(NC(=O)Nc4cc(C)on4)c(Cl)c3)c2cc1OC` [Tivozanib (AV-951)], the ΔTm at 10 µM runs as follows: under setting [4], 0.2 °C; under setting [5], 0 °C; under setting [6], 0.1 °C.
As to `Cc1cc(Nc2nc(N[C@@H](C)c3ncc(F)cn3)ncc2Cl)n[nH]1` [AZD1480], the ΔTm at 10 µM was 0.6 °C under setting [4], 0.5 °C under setting [5] and 0.6 °C under setting [6].
On to `Cc1ccc(F)c(NC(=O)Nc2ccc(-c3cccc4[nH]nc(N)c34)cc2)c1` [Linifanib (ABT-869)], for which the “ΔTm Run 1” value under setting [1] is 0.3 °C. Moreover, the “ΔTm Run 2” value under setting [2] came out at 0.6 °C. Moreover, under setting [3], the “ΔTm Average” value stood at 0.4 °C.
Take `Oc1ccc(-c2nc(-c3ccc(F)cc3)c(-c3ccncc3)[nH]2)cc1` [SB202190 (FHPI)]: the “ΔTm Run 1” value under setting [1] turned out to be 0.2 °C. For the same molecule, the “ΔTm Run 2” value under setting [2] was determined as 0.4 °C. For the same molecule, the “ΔTm Average” value under setting [3] was determined as 0.3 °C.
For `CSc1cccc(Nc2ncc3cc(-c4c(Cl)cccc4Cl)c(=O)n(C)c3n2)c1` [PD173955] the same measures were 0.0 °C, -0.3 °C and -0.1 °C.
On to `CN1CCC(c2c(O)cc(O)c3c(=O)cc(-c4ccccc4Cl)oc23)C1CO` (stereo not drawn) [P276-00], for which the ΔTm Average was 0.3 °C, the ΔTm Run 1 is 0.4 °C and the ΔTm Run 2 turned out to be 0.3 °C.
As to `NC(=O)c1cnc(N[C@@H]2CCCC[C@@H]2N)nc1Nc1cccc(-n2nccn2)c1` [PRT062607 (P505-15)], the “ΔTm Average” value stood at 1.3 °C, the “ΔTm Run 1” value was determined as 1.3 °C and the “ΔTm Run 2” value stood at 1.3 °C.
Take `CS(=O)(=O)CCNCc1ccc(-c2ccc3ncnc(Nc4ccc(OCc5cccc(F)c5)c(Cl)c4)c3c2)o1.Cc1ccc(S(=O)(=O)O)cc1.Cc1ccc(S(=O)(=O)O)cc1` [Lapatinib (GW-572016) Ditosylate]: the “ΔTm Run 1” value under setting [1] was determined as 0.3 °C. For the same molecule, the “ΔTm Run 2” value under setting [2] stood at 0.0 °C. Moreover, the “ΔTm Average” value under setting [3] came to 0.1 °C.
Regarding `Cc1[nH]c(/C=C2\C(=O)Nc3ccc(S(=O)(=O)Cc4c(Cl)cccc4Cl)cc32)c(C)c1C(=O)N1CCC[C@@H]1CN1CCCC1` [PHA-665752], the shift in melting temperature (ΔTm) at 10 µM runs as follows: under setting [4], 0.1 °C; under setting [5], 0.1 °C; under setting [6], 0.1 °C.
Regarding `CC(C)CCN1c2nc(Nc3cc(F)c(O)c(F)c3)ncc2N(C)C(=O)C1C` (stereo not drawn) [BI-D1870], under setting [1], the “ΔTm Run 1” value amounted to 0.4 °C. The “ΔTm Run 2” value under setting [2] was 0.0 °C. Moreover, under setting [3], the “ΔTm Average” value was determined as 0.2 °C.
Turning to `CC(=O)c1c(C)c2cnc(Nc3ccc(N4CCNCC4)cn3)nc2n(C2CCCC2)c1=O.Cl` [Palbociclib (PD-0332991) HCl], the “ΔTm Run 1” value under setting [1] turned out to be 0.6 °C. Moreover, the “ΔTm Run 2” value under setting [2] stood at 0.4 °C. In addition, under setting [3], the “ΔTm Average” value is 0.5 °C.
For `COc1cc2nccc(Oc3ccc(NC(=O)C4(C(=O)Nc5ccc(F)cc5)CC4)cc3)c2cc1OC.O=C(O)C[C@H](O)C(=O)O` [Cabozantinib malate (XL184)] the same measures were 0.1 °C, -0.3 °C and -0.1 °C.
Turning to `CNC(=O)Nc1ccc(-c2nc(N3CC4CCC(C3)O4)c3cnn(C4CCC5(CC4)OCCO5)c3n2)cc1` [WYE-125132 (WYE-132)], the “ΔTm Run 1” value under setting [1] was found to be 0.2 °C. In addition, under setting [2], the “ΔTm Run 2” value is -0.1 °C. Besides, the “ΔTm Average” value under setting [3] worked out at 0.0 °C.
Turning to `CC1(COc2ccc3c(c2)ncn3-c2ccc3cccc(N4CCC(N)CC4)c3n2)COC1` [Crenolanib (CP-868596)], under setting [1], the “ΔTm Run 1” value is 0.5 °C. Moreover, the “ΔTm Run 2” value under setting [2] was -0.1 °C. Further, under setting [3], the “ΔTm Average” value stood at 0.2 °C.
As for `CCCCOc1c(C(=O)c2c(F)cc(C)cc2F)c[nH]c2nncc1-2` [BMS-265246], the ΔTm at 10 µM is -0.1 °C under setting [4], -0.3 °C under setting [5] and -0.2 °C under setting [6].
As to `[H]/N=C(/N)N/C(=N/[H])NCCc1ccccc1` [Phenformin HCl], the ΔTm at 10 µM is, setting by setting: under setting [4], 0 °C; under setting [5], -0.4 °C; under setting [6], -0.2 °C.
For `CNC(=O)c1cc(COc2nnc(Nc3ccc(Cl)cc3)c3ccoc23)ccn1` [Telatinib] the same measures were -0.3 °C, -0.5 °C and -0.4 °C.
`COc1cc(Nc2ncc(F)c(Nc3ccc4c(n3)NC(=O)C(C)(C)O4)n2)cc(OC)c1OC` [R406 (free base)]: under setting [1], the “ΔTm Run 1” value was 0.0 °C. Besides, the “ΔTm Run 2” value under setting [2] was found to be 0.0 °C. The “ΔTm Average” value under setting [3] was 0.0 °C.
In the case of `CC(=O)Nc1nc(C)c(-c2ccc(Cl)c(S(=O)(=O)NCCO)c2)s1` [PIK-93], the ΔTm Average is 0 °C, the ΔTm Run 1 is 0 °C and the “ΔTm Run 2” value is on record as -0.1.
Regarding `CNC(=O)c1cc(Oc2ccc(NC(=O)Nc3ccc(Cl)c(C(F)(F)F)c3)cc2)ccn1` [Sorafenib], the “ΔTm Run 1” value under setting [1] is -0.3 °C. For the same molecule, under setting [2], the “ΔTm Run 2” value stood at 0.2 °C. Moreover, under setting [3], the “ΔTm Average” value was -0.1 °C.
Consider `Nc1nc(Nc2ccc(S(N)(=O)=O)cc2)nn1C(=O)c1c(F)cccc1F` [JNJ-7706621], for which the ΔTm at 10 µM runs as follows: under setting [4], 1.4 °C; under setting [5], 1.7 °C; under setting [6], 1.6 °C.
The matching figures for `COc1cc(Nc2ncc3c(n2)-c2ccc(Cl)cc2C(c2c(F)cccc2OC)=NC3)ccc1C(=O)O` [Alisertib (MLN8237)]: 0.1 °C, -0.3 °C and -0.1 °C.
With `O=C1NC(=O)/C(=C/c2cccc(C(F)(F)F)c2)S1` [SMI-4a], the “ΔTm Average” value was -0.2, the “ΔTm Run 1” value is -0.3 and the “ΔTm Run 2” value is recorded as -0.1.
The matching figures for `CN([C@@H](Cc1ccc(OS(=O)(=O)c2cccc3cnccc23)cc1)C(=O)N1CCN(c2ccccc2)CC1)S(=O)(=O)c1cccc2cnccc12` [KN-62]: -0.3, -0.4 and -0.2.
Take `COc1c(C)c(C(=O)c2ccc(N)c(C(=O)[O-])c2)n2ccccc12.[Na+]` [SSR128129E]: the “ΔTm Average” value is listed as -0.1, the “ΔTm Run 1” value is -0.1 and the “ΔTm Run 2” value is -0.1.
`Cl.Cl.NC1(c2ccc(-c3nc4ccn5c(=O)[nH]nc5c4cc3-c3ccccc3)cc2)CCC1` [MK-2206 2HCl]: the “ΔTm Run 1” value under setting [1] was -0.1 °C. Besides, the “ΔTm Run 2” value under setting [2] is -0.1 °C. Further, under setting [3], the “ΔTm Average” value was -0.1 °C.
`Cc1cc(Nc2ncc(Cl)c(Nc3ccccc3S(=O)(=O)C(C)C)n2)c(OC(C)C)cc1C1CCNCC1` [LDK378]: the thermal shift (ΔTm) at 10 µM under setting [4] is 0.4 °C, the ΔTm at 10 µM under setting [5] is 0 °C and the ΔTm at 10 µM under setting [6] was found to be 0.2 °C.
`O=C(Nc1cccc(Nc2ncc(Br)c(NCCc3cnc[nH]3)n2)c1)N1CCCC1` [BX-912]: the “ΔTm Run 1” value under setting [1] was 0.2 °C. Moreover, the “ΔTm Run 2” value under setting [2] is 0.2 °C. Besides, the “ΔTm Average” value under setting [3] is 0.2 °C.
`Cc1ccc(-c2nn(C(C)(C)C)c3ncnc(N)c23)cc1` [PP1]: the ΔTm Average turned out to be 0 °C, the ΔTm Run 1 is 0.2 °C and the “ΔTm Run 2” value is -0.2.
